# Measured values: patent US20230355613A1, “METHODS FOR TREATING PANCREATIC DUCTAL ADENOCARCINOMA” (HEALTH RESEARCH, INC., priority 2022, published 2023)
# Assays:
# [1] = test system: PDAC cell lines; assay: Clonogenic growth (colony formation) assay; type: cell-based, human; settings: all PDAC cell lines tested, 11-14 days
# Text: PDAC cells are sensitive to chemical inhibition of CPSF3. CPSF3 was recently identified as the target for the small molecule JTE-607. JTE-607 is a prodrug that, when metabolized by the ester hydrolyzing enzyme carboxylesterase 1 (CES1), binds to CPSF3 and inhibits its catalytic activity, impairing the processing of newly synthesized mRNAs. As genetic depletion of CPSF3 attenuated PDAC cell proliferation (FIG. 1), it 2as hypothesized that pharmacologic inhibition of CPSF3 with JTE-607 could represent a novel therapeutic approach in PDAC. The sensitivity of multiple human pancreatic cell lines, both non-transformed and PDAC, to JTE-607 in a 72-hour dose-response cell viability assay was examined. […] To examine if sensitivity to CPSF3 inhibition was associated with proliferation rate, the relationship between cell line doubling time and JTE-607 sensitivity was assessed. […] Next, the effect of JTE-607 on cell proliferation by treating cells with increasing concentrations of JTE-607 and assessing cell viability in a time-dependent fashion (FIGS. 2C-2E) was determined. […]
# JTE-607 studies. […] The next day, JTE-607 was titrated over a range of concentrations using the Tecan D300e Digital Dispenser and cell viability was measured 72 hours post drug titration using a CellTiter-Glo Luminescent Cell Viability Assay Kit (Promega). […] Colony area was measured using ImageJ software. […]
# [2] = test system: HPNE cells; assay: 72-hour dose-response cell viability assay (CellTiter-Glo); type: cell-based; settings: Homo sapiens, HPNE non-transformed pancreatic epithelial cells
# Text: (§1) PDAC cells are sensitive to chemical inhibition of CPSF3. CPSF3 was recently identified as the target for the small molecule JTE-607. JTE-607 is a prodrug that, when metabolized by the ester hydrolyzing enzyme carboxylesterase 1 (CES1), binds to CPSF3 and inhibits its catalytic activity, impairing the processing of newly synthesized mRNAs. As genetic depletion of CPSF3 attenuated PDAC cell proliferation (FIG. 1), it 2as hypothesized that pharmacologic inhibition of CPSF3 with JTE-607 could represent a novel therapeutic approach in PDAC. The sensitivity of multiple human pancreatic cell lines, both non-transformed and PDAC, to JTE-607 in a 72-hour dose-response cell viability assay was examined. […] To examine if sensitivity to CPSF3 inhibition was associated with proliferation rate, the relationship between cell line doubling time and JTE-607 sensitivity was assessed. […] Next, the effect of JTE-607 on cell proliferation by treating cells with increasing concentrations of JTE-607 and assessing cell viability in a time-dependent fashion (FIGS. 2C-2E) was determined. […] Finally, the effect of JTE-607 on colony formation in PDAC cell lines was tested. […] Therefore, JTE-607 selectively attenuates proliferation of PDAC cells over non-transformed pancreatic cells.
# (§2) JTE-607 studies. For dose-response measurements, cells were seeded at a density of 1000 cells per well in a 96-well white plate. The next day, JTE-607 was titrated over a range of concentrations using the Tecan D300e Digital Dispenser and cell viability was measured 72 hours post drug titration using a CellTiter-Glo Luminescent Cell Viability Assay Kit (Promega). For cell proliferation experiments, cells were seeded at a density of 250 cells per well in a 96-well white plate. DMSO control or JTE-607 was dispensed at varying concentrations and proliferation was measured using CellTiter-Glo Assay at days 0, 2, 4 and 6. For clonogenicity experiments, cells were seeded at a concentration of 500 cells per well and treated with different concentrations of JTE-607. Cells were allowed to grow over a period of 11-14 days after which they were fixed in 10% formalin, stained with 0.2% Crystal Violet and images were obtained for analysis. Colony area was measured using ImageJ software. Data were normalized to DMSO control data points.
# [3] = test system: C7 CAF; assay: as above; type: cell-based; settings: Fibroblast, C7 CAF human cancer associated fibroblasts
# Text: as §1, §2
# [4] = test system: Panc1 cells; assay: as above; type: cell-based; settings: Homo sapiens, PANC-1, Panc1 PDAC cells
# Text: as §1, §2
# [5] = test system: HPDE cells; assay: as above; type: cell-based; settings: Homo sapiens, HPDE non-transformed pancreatic epithelial cells
# Text: as §1, §2
# [6] = test system: PancPat CAFs; assay: as above; type: cell-based; settings: Fibroblast, PancPat CAFs human cancer associated fibroblasts
# Text: as §1, §2
# [7] = test system: MiaPaCa2 cells; assay: mRNA expression of RD histones (H2B, H3) by qPCR; type: cell-based, human
# Text: (C) Heatmap of top differentially expressed genes upon JTE-607 treatment. Replication-dependent histones are colored in blue. Expression is plotted as transformed expression value. (D) mRNA expression of H2B and H3 in MiaPaCa2 cells treated with JTE-607. *, P<0.05, **, P<0.01, ***, P<0.001, Ordinary one-way ANOVA with Dunnett's multiple comparisons test. (E) DSeq2 normalized counts of H3F3A and H2AZ1 histone variants (replication-independent) in Panc1 cells treated with JTE-607. […]. (F-H) Volcano plots of Spearman's correlation of CPSF3 and all histone genes (F), replication-dependent histone genes (G) and replication-independent histone genes (H). Each dot represents a histone gene. Blue and red dots denote positive and negative correlation, respectively. (Spearman=−0.15>R>0.15, P<0.05).
# As JTE-607 has been previously administered to patients with no cytotoxic effects, we wanted to determine the mechanism underlying the ability of JTE-607 to attenuate PDAC cell proliferation. […] The Spearman's correlation for CPSF3 and 98 histone genes from the CPTAC database (Spearman=−0.15>R>0.15, P<0.05) (FIG. 4F) were calculated. […] A signature by selecting 50 RD histones and assessed PDAC patient survival based on gene expression was generated.
# RNA isolation and quantitative PCR. […] Data were analyzed in Microsoft Excel and graphed using GraphPad Prism (v 9.3.0).
smiles,measurement,setting,value
CCOC(=O)[C@H](Cc1ccccc1)NC(=O)c1cc(Cl)c(OCCN2CCN(C)CC2)c(Cl)c1O [JTE-607],colony formation,[1],significantly decreased colony formation
same,IC50,[2],130 µM
same,IC50,[3],70 µM
same,IC50,[4],2160 nM
same,IC50,[5],60.1 µM
same,IC50,[6],114 µM
same,"RD histone mRNA expression (H2B, H3)",[7],decrease
